Experimental data from patent US11596615B2, “Compositions and methods for treatment of insulin resistance” (Temple University—Of The Commonwealth System Of Higher …, priority 2016, dated 2023).
Structures can show the parent of a compound that is named as a salt.

Assays:
GLUT4 = GLUT4 carbonylation (K264-HNE adduct) in 3T3-L1 cells overexpressing GLUT4, MRM; type: cell-based; settings: 20 μM for 4 hour, FIG. 1A-1B
Procedure: A GLUT4-SNAP fusion construct was generated. 3T3-L1 adipocytes were then retrovirally transduced with the construct to overexpress the GLUT4-SNAP protein. Twenty-four hours after the transduction, the cells were treated with and without 20 μM of 4-HNE for an additional 4 hours. This 4-HNE dose was chosen because it was similar to the physiological levels and was non-toxic. In order to identify and quantitate GLUT4 carbonylation (K264 NHE-adduct or R265 and R246 glutamic semialdehyde adducts), a mass spectroscopy-based multiple reaction monitoring (MRM) method was developed and validated.

3T3-L1 adipocytes [1] = assay: Effect of 4-HNE and H2O2 on insulin-induced glucose uptake by 3T3-L1 adipocytes; type: cell-based, mouse; settings: 500 μM for 4 hour, then 100 nM insulin 60 minutes; FIG. 2
Procedure: 3T3-L1 adipocytes (1×10^6) were treated with either 500 μM of 4-HNE or H2O2 or combination of both for 4 hour and were then stimulated with 100 nM insulin for 60 minutes. The glucose uptake was measured by a specific MRM method.

3T3-L1 adipocytes [2] = assay: Restoring glucose uptake in insulin-stimulated 3T3-L1 cells exposed to 4-HNE and H2O2 (FIG. 13); type: cell-based, mouse; settings: 10 μM pretreatment 12 hours, then 4HNE and H2O2 4 hours; for glucose uptake impairment induced by 4-HNE and H2O2: FIG. 13
Procedure: Insulin-stimulated 3T3-L1 adipocytes were pretreated with the drug (S)-2-amino-6-((3-aminopropyl)amino)hexanoic acid dihydrochloride (10 μM) for 12 hours followed by exposure to 4HNE and H2O2 for an additional 4 hours. The amounts of glucose taken up by the 3T3-L1 adipocytes were measured by the MRM methods described above. The results in FIG. 13 show the effect of the drug in restoring glucose uptake in insulin-stimulated 3T3-L1 cells exposed to 4-HNE and H2O2: Control cells, no insulin (C− No Ins); control cells, with insulin (C+ Ins); 4HNE+H2O2-treated cells (4HNE/H2O2) and cells treated with drug+4HNE+H2O2 (“APL”).
Insulin-stimulated 3T3-L1 adipocytes were pretreated with the drug (S)-2-amino-5-((6-aminohexyl)amino)pentanoic acid dihydrochloride (10 μM) for 12 hours followed by exposure to 4HNE and H2O2 for an additional 4 hours. The amounts of glucose taken up by the 3T3-L1 adipocytes were measured by the MRM methods described above. FIG. 13 includes the results: cells treated with (S)-2-amino-5-((6-aminohexyl)amino)pentanoic acid trihydrochloride (MC-180351).
Insulin-stimulated 3T3-L1 adipocytes were pretreated with the drug (S)-2-amino-5-(([…])amino)pentanoic acid dihydrochloride (10 μM) for 12 hours followed by exposure to 4HNE and H2O2 for an additional 4 hours. The amounts of glucose taken up by the 3T3-L1 adipocytes were measured by the MRM methods described above. FIG. 13 includes the results: cells treated with (S)-2-amino-5-((5-aminopentyl)amino)pentanoic acid trihydrochloride (MC-180352).

Compound	formation of K264-HNE GLUT4 adduct (GLUT4)	reduction of glucose uptake (3T3-L1 adipocytes [1])	GLUT4 carbonylations (3T3-L1 adipocytes [2])	glucose uptake impairment induced by 4-HNE and H2O2 (3T3-L1 adipocytes [2])
CCCCCC(O)/C=C/C=O (stereo not shown) [Example 4-HNE, 4-hydroxynonenal]	induced the formation of the K264-HNE adduct	32%	–	–
NCCCCCNCCC[C@H](N)C(=O)O [MC-180352, (S)-2-amino-5-((5-aminopentyl)amino)pentanoic acid trihydrochloride]	–	–	reduce GLUT4 carbonylations	prevent glucose uptake impairment induced by 4-HNE and H2O2
OO [Example H2O2, H2O2]	–	66%	–	–
NCCCCCCNCCC[C@H](N)C(=O)O [MC-180351, (S)-2-amino-5-((6-aminohexyl)amino)pentanoic acid trihydrochloride]	–	–	reduce GLUT4 carbonylations	prevent glucose uptake impairment induced by 4-HNE and H2O2
